Tests used:
[1] = tested on: tongue carbonic anhydrases; experiment: chorda tympani nerve recordings before and after DZA treatment of the tongue; assay type: in vivo, mice
CA4 = CA4 (Mus musculus, UniProt Q64444); conditions: TRPM5-KO mice; before and after addition of 30 mM KHCO3 (pH7.4)
[2] = tested on: T2R32-Sapphire positive taste cells; experiment: calcium imaging of fungiform taste receptor cells; assay type: cell-based; conditions: T2R32-Sapphire mice; for response of T2R32-Sapphire positive taste cells to stimulus: 500 mM KCl (high-salt), 100 mM citric acid (sour)
Protocol: Calcium imaging from fungiform TRCs was performed as previously described (Chandrashekar et al. (2010); Oka et al. (2006)).
Fungiform TRCs were loaded in vivo with Calcium Green-1 dextran 3 kD (Invitrogen) by electroporating individual taste buds. Tongues were removed 24-36 hours after dye loading, and the epithelium was peeled enzymatically and placed in a custom recording chamber. The apical surface of the preparation was bathed in a constant flow of artificial saliva, and taste stimuli were delivered by focal application to individual taste buds. Tastants were applied for 1 second, with a minimum of 10 seconds of artificial saliva between stimuli. Changes in [Ca2+]i were monitored using a 5-Live confocal microscope (Zeiss) equipped with a ×40 C-Apochromat 1.20 W objective; images were captured at 4 Hz, and ΔF/F from individual TRCs analyzed and pseudo-colored as described previously (Chandrashekar et al. (2010)).
To identify sapphire positive cells in T2R32-Sapphire mice, 405-nm excitation laser to separate sapphire and Calcium Green-1 fluorescence was used. Mean cellular fluorescence intensity (F) was calculated for the individual TRCs and basal fluorescence (Fo) was assigned to each cell by averaging fluorescence intensity over 3 seconds just before tastant application. ΔF/F was calculated as [F−Fo]/Fo; taste cells were considered responders when ΔF/F exceeded 3 standard deviations above Fo within 5 seconds of tastant application.

[3] = tested on: bitter taste receptor cells / high-salt sensing pathway; experiment: chorda tympani nerve recordings before and after AITC application to the tongue; assay type: in vivo, mice
Protocol: Lingual stimulation and recording procedures were performed as previously described (Chandrashekar et al. (2010); Nelson et al. (2002)). Data analysis used the integrated response during the 5 seconds of tastant stimulation.
Responses to 20 mM citric acid (FIGS. 2 and 3), 60 mM NaCl (FIG. 8, 12, and 13), or 250 mM KCl before AITC application (FIG. 13) were used to normalize responses for each experimental series. For FIG. 7, data were normalized to 20 mM citric acid and then scaled to WT responses before AITC application. Data were analyzed for statistical significance using an unpaired, one-tailed Student's t-test and 95% confidence limits.
To compute the amiloride-sensitive salt component, the stimulation regime involved sequential applications of NaCl solutions first without, and then with, amiloride (5 seconds pre- or pre- and post-incubation and co-application with NaCl solution) in the same experimental series. The amiloride-insensitive component was defined as the response in the presence of amiloride. The fraction of the response inhibited by amiloride was defined as the amiloride-sensitive component (amiloride-sensitive component=response without amiloride−response with amiloride).
For pharmacological inhibition studies using allyl isothiocyanate (AITC), responses to a series of taste stimuli were measured. Then 3 mM AITC (Aldrich, 377430-5G) was applied to the tongue at a rate of 6 ml/minute for 5 minutes. The tongue was washed with artificial saliva for 1 minute and nerve responses to the same series of taste stimuli measured. Responses before and after AITC were compared for each animal. To minimize effects of recovery, responses after AITC were recorded within 15 minutes of AITC treatment.

[4] = control and T2R-PLC rescue animals, AITC treatment

Chain of CA4 (Q64444 18-277): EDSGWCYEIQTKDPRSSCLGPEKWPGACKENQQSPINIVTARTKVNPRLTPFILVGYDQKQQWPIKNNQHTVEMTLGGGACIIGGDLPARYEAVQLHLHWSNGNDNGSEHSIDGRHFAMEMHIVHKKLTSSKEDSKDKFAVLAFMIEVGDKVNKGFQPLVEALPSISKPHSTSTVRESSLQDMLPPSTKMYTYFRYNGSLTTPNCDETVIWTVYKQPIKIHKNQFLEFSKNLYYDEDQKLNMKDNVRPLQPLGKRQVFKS

Q: With CCN[C@H]1C[C@H](C)S(=O)(=O)c2sc(S(N)(=O)=O)cc21 [DZA, dorzolamide] as the compound, how does the “taste responses from PKD2L1-TeNT mice” value ([1]; PKD2L1-TeNT mice, various salts, 0.5% w/v DZA) read?
A: completely insensitive

Q: What about the “sour and low salt taste responses” value ([1]; TRPM5-KO mice, 20 mM citric acid, 60 mM NaCl, 0.5% w/v DZA) of the same compound?
A: insensitive

Q: What about the “CO2 chorda tympani responses” value ([1]; TRPM5-KO mice, 0.5% w/v DZA) of the same compound?
A: affected

Q: And the “high-salt induced chorda tympani responses from sour taste cells” value ([1]; TRPM5-KO mice, 0.5% w/v DZA for 5 minutes)?
A: reduced

Q: For O=C(O)O [KHCO3], which “chorda tympani responses to 500 mM KCl or 100 mM CaCl2 (PKD2L1-cell mediated high-salt responses)” value (CA4) is on record?
A: strong inhibition

Q: How did the “response of T2R32-Sapphire positive taste cells to stimulus” value [2] turn out when O=C(O)CC(O)(CC(=O)O)C(=O)O [citric acid] was run?
A: not

Q: What does the source list for [Cl-].[K+] [KCl, potassium chloride]?
A: number of Sapphire-positive cells activated ([2]; 500 mM KCl): 12 cells; response of T2R32-Sapphire positive taste cells to stimulus [2]: responded

Q: With C=CCN=C=S [AITC, allyl isothiocyanate] as the compound, how does the “chorda tympani responses to high concentration of bitter tastant cycloheximide” value ([3]; 1 mM cycloheximide, 1 and 30 minutes after AITC treatment) read?
A: strongly suppresses

Q: What about the “chorda tympani responses to other bitter tastants” value ([3]; 10 mM denatonium and 10 mM quinine, after AITC treatment) of the same compound?
A: suppressed

Q: And the “chorda tympani response to sour taste” value ([3]; 20 mM citric acid, after AITC treatment)?
A: remained unimpaired

Q: And the “taste response evoked by AITC itself” value ([3]; 5 minutes exposure of the tongue to 3 mM AITC)?
A: minimal taste response

Q: What about the “fraction of high-salt neural responses eliminated” value ([3]; AITC treatment, FIG. 7) of the same compound?
A: about 50%

Q: What about the “remaining high-salt (KCl) responses in PKD2L1-TeNT mice” value ([3]; PKD2L1-TeNT mice, further treatment with AITC) of the same compound?
A: effectively abolished

Q: What about the “bitter and high-salt taste responses in TRPA1-KO mice” value ([3]; TRPA1-KO mice, with and without AITC) of the same compound?
A: robust AITC-mediated suppression

Q: What about the “nerve responses to high salt in TRPM5 and PLCβ2 knockout mice” value ([3]; TRPM5-KO and PLCβ2-KO mice, before and after AITC) of the same compound?
A: no longer sensitive

Q: What about the “chorda tympani responses to 0.1 mM cycloheximide” value [3, 4] of the same compound?
A: almost completely suppressed

Q: And the “chorda tympani responses to 500 mM KCl and 500 mM NaCl in the presence of 10 μM amiloride” value [3, 4]?
A: reduced by half

Q: And the “chorda tympani bitter responses” value ([3]; wild type mice, 0.1 mM cycloheximide, after 3 mM AITC)?
A: completely inhibited

Q: And the “chorda tympani responses to low salt” value ([3]; wild type mice, 60 mM NaCl, after 3 mM AITC)?
A: did not affect

Q: And the “chorda tympani responses to high-salt” value ([3]; wild type mice, 250 or 500 mM NaCl + amiloride and KCl, after 3 mM AITC for 5 minutes)?
A: significantly suppressed

Q: What about the “chorda tympani responses to KCl (selectively activates the high-salt pathway)” value ([3]; wild type mice, after 3 mM AITC) of the same compound?
A: Identical suppression

Q: And the “chorda tympani responses to other taste qualities” value ([3]; wild type mice, sour, sweet, umami tastants, after 3 mM AITC)?
A: did not affect
